{
  "source": "patent US20240018120A1",
  "about": "“MAGL INHIBITORS” (H. LUNDBECK A/S, priority 2020, published 2024)",
  "data": [
    {"molecular_target": "T1, MAGL (Homo sapiens, UniProt Q99685)", "T1 sequence (Q99685 1-303)": "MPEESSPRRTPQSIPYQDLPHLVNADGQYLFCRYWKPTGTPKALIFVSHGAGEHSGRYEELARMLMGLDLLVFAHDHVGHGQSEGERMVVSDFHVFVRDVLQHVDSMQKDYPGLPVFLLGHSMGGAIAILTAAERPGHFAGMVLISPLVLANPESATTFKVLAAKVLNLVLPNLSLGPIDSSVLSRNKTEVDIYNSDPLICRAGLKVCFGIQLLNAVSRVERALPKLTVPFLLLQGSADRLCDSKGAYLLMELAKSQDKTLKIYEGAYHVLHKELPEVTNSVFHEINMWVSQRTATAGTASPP", "experiment": "In vitro competitive activity-based protein profiling, PC3 human cell membrane proteomes", "format": "biochemical", "parameters": "endogenous in cells; host or cells: PC3 human cells (membrane proteome)", "conditions": "human PC3 membrane proteome", "procedure": "PC3 human cell membrane proteomes (50 μL, 2.0 mg/mL total protein concentration) were preincubated with varying concentrations of inhibitors at 37° C. After 30 min, the ABPP probe JW912-Bodipy (1.0 μL, 50 μM in DMSO) was added and the mixture was incubated for 30 min at room temperature. Reactions were quenched with SDS loading buffer (15 μL-4×) and run on SDS-PAGE. Following gel imaging, serine hydrolase activity was determined by measuring fluorescent intensity of gel bands corresponding to MAGL using ImageJ 1.43u software. Intensities were converted to percent enzyme activity by normalizing to DMSO controls. IC50 values were determined by fitting percent enzyme activities to a non-linear regression, 4-parameter, sigmoidal dose response function in Prism GraphPad.", "units": {"IC50": "µM"}, "values": [
      {"smiles": "Cc1ccc(NC(=O)C2CC23CCN(C(=O)OC(C(F)(F)F)C(F)(F)F)CC3)cc1", "note": "(single isomer, unassigned) [Example 144, 1,1,1,3,3,3-hexafluoropropan-2-yl (R or S)-1-(p-tolylcarbamoyl)-6-azaspiro[2.5]octane-6-carboxylate]", "IC50": 0.0052},
      {"smiles": "Cc1ccc(NC(=O)C2CC23CCN(C(=O)OC(C(F)(F)F)C(F)(F)F)CC3)cc1", "note": "(single isomer, unassigned) [Example 145, 1,1,1,3,3,3-hexafluoropropan-2-yl (R or S)-1-(p-tolylcarbamoyl)-6-azaspiro[2.5]octane-6-carboxylate]", "IC50": 0.27},
      {"smiles": "O=C(Nc1cccc(F)c1)C1CC12CCN(C(=O)OC(C(F)(F)F)C(F)(F)F)CC2", "note": "(single isomer, unassigned) [Example 147, 1,1,1,3,3,3-hexafluoropropan-2-yl (R or S)-1-((3-fluorophenyl)carbamoyl)-6-azaspiro[2.5]octane-6-carboxylate]", "IC50": 0.0018},
      {"smiles": "O=C(Nc1cccc(F)c1)C1CC12CCN(C(=O)OC(C(F)(F)F)C(F)(F)F)CC2", "note": "(single isomer, unassigned) [Example 148, 1,1,1,3,3,3-hexafluoropropan-2-yl (R or S)-1-((3-fluorophenyl)carbamoyl)-6-azaspiro[2.5]octane-6-carboxylate]", "IC50": 0.091},
      {"smiles": "O=C(NCc1ccccc1)[C@@H]1CC12CCN(C(=O)OC(C(F)(F)F)C(F)(F)F)CC2", "note": "(single isomer, unassigned) [Example 151]", "IC50": 0.031},
      {"smiles": "O=C(NCc1cncnc1)C1CC12CCN(C(=O)OC(C(F)(F)F)C(F)(F)F)CC2", "note": "(single isomer, unassigned) [Example 153, 1,1,1,3,3,3-hexafluoropropan-2-yl (R or S)-1-((pyrimidin-5-ylmethyl)carbamoyl)-6-azaspiro[2.5]octane-6-carboxylate]", "IC50": 0.077},
      {"smiles": "O=C(NCc1cncnc1)C1CC12CCN(C(=O)OC(C(F)(F)F)C(F)(F)F)CC2", "note": "(single isomer, unassigned) [Example 154, 1,1,1,3,3,3-hexafluoropropan-2-yl (R or S)-1-((pyrimidin-5-ylmethyl)carbamoyl)-6-azaspiro[2.5]octane-6-carboxylate]", "IC50": 0.86},
      {"smiles": "O=C(NCc1cccnn1)C1CC12CCN(C(=O)OC(C(F)(F)F)C(F)(F)F)CC2", "note": "(single isomer, unassigned) [Example 156, 1,1,1,3,3,3-hexafluoropropan-2-yl (R or S)-1-((pyridazin-3-ylmethyl)carbamoyl)-6-azaspiro[2.5]octane-6-carboxylate]", "IC50": 0.45},
      {"smiles": "O=C(NCc1cccnn1)C1CC12CCN(C(=O)OC(C(F)(F)F)C(F)(F)F)CC2", "note": "(single isomer, unassigned) [Example 157]", "IC50": 0.23},
      {"smiles": "O=C(NC1CC2(COC2)C1)C1CC12CCN(C(=O)OC(C(F)(F)F)C(F)(F)F)CC2", "note": "(single isomer, unassigned) [Example 159, 1,1,1,3,3,3-hexafluoropropan-2-yl (R or S)-1-((2-oxaspiro[3.3]heptan-6-yl)carbamoyl)-6-azaspiro[2.5]octane-6-carboxylate]", "IC50": 0.043},
      {"smiles": "O=C(NC1CC2(COC2)C1)C1CC12CCN(C(=O)OC(C(F)(F)F)C(F)(F)F)CC2", "note": "(single isomer, unassigned) [Example 160, 1,1,1,3,3,3-hexafluoropropan-2-yl (R or S)-1-((2-oxaspiro[3.3]heptan-6-yl)carbamoyl)-6-azaspiro[2.5]octane-6-carboxylate]", "IC50": 0.59},
      {"smiles": "O=C(Nc1ccc(C2CC2)nc1)[C@@H]1CC12CCN(C(=O)OC(C(F)(F)F)C(F)(F)F)CC2", "note": "(single isomer, unassigned) [Example 162]", "IC50": 0.16},
      {"smiles": "O=C(Nc1ccc(C2CC2)nc1)[C@H]1CC12CCN(C(=O)OC(C(F)(F)F)C(F)(F)F)CC2", "note": "(single isomer, unassigned) [Example 163]", "IC50": 0.001},
      {"smiles": "CC(C)Oc1ccc(NC(=O)C2CC23CCN(C(=O)OC(C(F)(F)F)C(F)(F)F)CC3)cn1", "note": "(single isomer, unassigned) [Example 165, 1,1,1,3,3,3-hexafluoropropan-2-yl (R or S)-1-((6-isopropoxypyridin-3-yl)carbamoyl)-6-azaspiro[2.5]octane-6-carboxylate]", "IC50": 0.0014},
      {"smiles": "CC(C)Oc1ccc(NC(=O)C2CC23CCN(C(=O)OC(C(F)(F)F)C(F)(F)F)CC3)cn1", "note": "(single isomer, unassigned) [Example 166, 1,1,1,3,3,3-hexafluoropropan-2-yl (R or S)-1-((6-isopropoxypyridin-3-yl)carbamoyl)-6-azaspiro[2.5]octane-6-carboxylate]", "IC50": 0.13},
      {"smiles": "CC1(CNC(=O)C2CC23CCN(C(=O)OC(C(F)(F)F)C(F)(F)F)CC3)CCOCC1", "note": "(single isomer, unassigned) [Example 169, 1,1,1,3,3,3-hexafluoropropan-2-yl (R or S)-1-(((4-methyltetrahydro-2H-pyran-4-yl)methyl)carbamoyl)-6-azaspiro[2.5]octane-6-carboxylate]", "IC50": 0.21},
      {"smiles": "CC(=O)Nc1ccc(NC(=O)C2CC23CCN(C(=O)OC(C(F)(F)F)C(F)(F)F)CC3)cn1", "note": "(single isomer, unassigned) [Example 171, 1,1,1,3,3,3-hexafluoropropan-2-yl (R or S)-1-((6-acetamidopyridin-3-yl)carbamoyl)-6-azaspiro[2.5]octane-6-carboxylate]", "IC50": 0.0025},
      {"smiles": "CC(=O)Nc1ccc(NC(=O)C2CC23CCN(C(=O)OC(C(F)(F)F)C(F)(F)F)CC3)cn1", "note": "(single isomer, unassigned) [Example 172, 1,1,1,3,3,3-hexafluoropropan-2-yl (R or S)-1-((6-acetamidopyridin-3-yl)carbamoyl)-6-azaspiro[2.5]octane-6-carboxylate]", "IC50": 0.13},
      {"smiles": "NC(=O)c1ccc(NC(=O)[C@@H]2CC23CCN(C(=O)OC(C(F)(F)F)C(F)(F)F)CC3)cn1", "note": "(single isomer, unassigned) [Example 174]", "IC50": 0.22},
      {"smiles": "NC(=O)c1ccc(NC(=O)[C@H]2CC23CCN(C(=O)OC(C(F)(F)F)C(F)(F)F)CC3)cn1", "note": "(single isomer, unassigned) [Example 175]", "IC50": 0.0014},
      {"smiles": "O=C(Nc1ccon1)C1CC12CCN(C(=O)OC(C(F)(F)F)C(F)(F)F)CC2", "note": "(single isomer, unassigned) [Example 177, 1,1,1,3,3,3-hexafluoropropan-2-yl (R or S)-1-(isoxazol-3-ylcarbamoyl)-6-azaspiro[2.5]octane-6-carboxylate]", "IC50": 0.29},
      {"smiles": "O=C(Nc1ccon1)C1CC12CCN(C(=O)OC(C(F)(F)F)C(F)(F)F)CC2", "note": "(single isomer, unassigned) [Example 178, 1,1,1,3,3,3-hexafluoropropan-2-yl (R or S)-1-(isoxazol-3-ylcarbamoyl)-6-azaspiro[2.5]octane-6-carboxylate]", "IC50": 0.0027},
      {"smiles": "CS(=O)(=O)Nc1ccc(NC(=O)C2CC23CCN(C(=O)OC(C(F)(F)F)C(F)(F)F)CC3)cn1", "note": "(single isomer, unassigned) [Example 180, 1,1,1,3,3,3-hexafluoropropan-2-yl (R or S)-1-((6-(methylsulfonamido)pyridin-3-yl)carbamoyl)-6-azaspiro[2.5]octane-6-carboxylate]", "IC50": 0.28},
      {"smiles": "O=C(O)COc1ccc(NC(=O)C2CC23CCN(C(=O)OC(C(F)(F)F)C(F)(F)F)CC3)cn1", "note": "(single isomer, unassigned) [Example 184, (R or S)-2-((5-(6-(((1,1,1,3,3,3-hexafluoropropan-2-yl)oxy)carbonyl)-6-azaspiro[2.5]octane-1-carboxamido)pyridin-2-yl)oxy)acetic acid]", "IC50": 1.4}
    ]}
  ]
}
